In patent publication US10787443B2, “RAF-degrading conjugate compounds” (ZAMBONI CHEM SOLUTIONS INC., priority 2017, dated 2020):
Where a name gives a salt, the structure may show the parent alone.

Each compound was assayed on GST-Braf kinase domain and biotinylated E3 substrate adapter (VHL/EloB/EloC complex or CRBN318-425) (assay: Dimerization assay (AlphaScreen/AlphaLisa), RAF/E3 dimerization). Conditions: Table 16; relative value; compounds 4 fold serial dilutions from 20 μM.
Type: binding

| RAF/E3 Dimerization | SMILES |
| --- | --- |
| + + + | Cc1ncc(NC(=O)c2cccc(C(F)(F)F)c2)cc1-c1cnc(OCCOCCOCCOCC(=O)N[C@@H](C(=O)N2C[C@H](O)C[C@H]2C(=O)N[C@@H](C)c2ccc(-c3scnc3C)cc2)C(C)(C)C)c(N2CCOCC2)c1 [Compound 1.013, (2S,4R)-1-((R)-2-(tert-butyl)-14-((2′-methyl-5-morpholino-5′-(3-(trifluoromethyl)benza-mido)-[3,3′-bipyridin]-6-yl)oxy)-4-oxo-6,9,12-trioxa-3-azatetradecan-1-oyl)-4-hydroxy-N—((S)-1-(4-(4-methylthiazol-5-yl)phenyl)ethyl)pyrrolidine-2-carboxamide] |

Same assay, conditions: Table 17; relative value; compounds 4 fold serial dilutions from 20 μM

| SMILES | RAF/E3 Dimerization |
| --- | --- |
| Cc1ncsc1-c1ccc([C@H](C)NC(=O)[C@@H]2C[C@@H](O)CN2C(=O)[C@H](NC(=O)CCOCCOCCOCCOCCNC(=O)c2cc(Oc3ccc(NC(=O)Nc4ccc(Cl)c(C(F)(F)F)c4)cc3)ccn2)C(C)(C)C)cc1 [Compound 1.015, 4-(4-(3-(4-chloro-3-(trifluoromethyl)phenyl)ureido)phenoxy)-N-(17-((2S,4R)-4-hydroxy-2-(((S)-1-(4-(4-methylthiazol-5-yl)phenyl)ethyl)carbamoyl)pyrrolidine-1-carbonyl)-18,18-dimethyl-15-oxo-3,6,9,12-tetraoxa-16-azanonadecyl)picolinamide] | + (5% > RAF/E3 Dimerization) |
| Cc1ncsc1-c1ccc([C@H](C)NC(=O)[C@@H]2C[C@@H](O)CN2C(=O)[C@H](NC(=O)CCOCCOCCOCCOCCOCCOCCNC(=O)c2cc(Oc3ccc(NC(=O)Nc4ccc(Cl)c(C(F)(F)F)c4)cc3)ccn2)C(C)(C)C)cc1 [Compound 1.016, 4-(4-(3-(4-chloro-3-(trifluoromethyl)phenyl)ureido)phenoxy)-N—((R)-23-((2S,4R)-4-hydroxy-2-(((S)-1-(4-(4-methylthiazol-5-yl)phenyl)ethyl)carbamoyl)pyrrolidine-1-carbonyl)-24,24-dimethyl-21-oxo-3,6,9,12,15,18-hexaoxa-22-azapentacosyl)picolinamide] | + (5% > RAF/E3 Dimerization) |
| Cc1ncc(NC(=O)c2cccc(C(F)(F)F)c2)cc1-c1cnc(O[C@@H]2CCO[C@@H](COCc3cn(CCCCCC(=O)N[C@@H](C(=O)N4C[C@H](O)C[C@H]4C(=O)N[C@@H](C)c4ccc(-c5scnc5C)cc4)C(C)(C)C)nn3)C2)c(N2CCOCC2)c1 [Compound 2.005] | ++++ (75% > RAF/E3 Dimerization ≥ 50%) |
| Cc1ncc(NC(=O)c2cccc(C(F)(F)F)c2)cc1-c1cnc(OCCOCCOCCOCCN[C@@H](C(=O)N2C[C@H](O)C[C@H]2C(=O)N[C@@H](C)c2ccc(-c3scnc3C)cc2)C(C)(C)C)c(N2CCOCC2)c1 [Compound 2.006, (R)-1-((2S,4R)-4-hydroxy-2-(((S)-1-(4-(4-methylthiazol-5-yl)phenyl)ethyl)carbamoyl)-pyrrolidin-1-yl)-3,3-dimethyl-N-(2-(2-(2-(2-((2′-methyl-5-morpholino-5′-(3-(trifluoro-methyl)benzamido)-[3,3′-bipyridin]-6-yl)oxy)ethoxy)ethoxy)ethoxy)ethyl)-1-oxobutan-2-aminium formate] | + (5% > RAF/E3 Dimerization) |
| Cc1ncc(NC(=O)c2cccc(C(F)(F)F)c2)cc1-c1cnc(OCCOCCOCCOCc2cn(CCCCC(=O)N[C@@H](C(=O)N3C[C@H](O)C[C@H]3C(=O)N[C@@H](C)c3ccc(-c4scnc4C)cc3)C(C)(C)C)nn2)c(N2CCOCC2)c1 [Compound 2.009, (2S,4R)-1-((R)-3,3-dimethyl-2-(5-(4-((2-(2-(2-((2′-methyl-5-morpholino-5′-(3-(trifluoromethyl)benzamido)-[3,3′-bipyridin]-6-yl)oxy)ethoxy)ethoxy)ethoxy)methyl)-1H-1,2,3-triazol-1-yl)pentanamido)butanoyl)-4-hydroxy-N—((S)-1-(4-(4-methylthiazol-5-yl)phenyl)ethyl)pyrrolidine-2-carboxamide] | +++ (50% > RAF/E3 Dimerization ≥ 25) |
| Cc1ccc(NC(=O)c2cccc(C(F)(F)F)c2)cc1-c1cnc(OCCOCCOCCOCc2cn(CCCCCC(=O)N[C@@H](C(=O)N3C[C@H](O)C[C@H]3C(=O)N[C@@H](C)c3ccc(-c4scnc4C)cc3)C(C)(C)C)nn2)c(N2CCOCC2)c1 [Compound 2.011, (2S,4R)-1-((R)-3,3-dimethyl-2-(6-(4-((2-(2-(2-((5-(2-methyl-5-(3-(trifluoromethyl)benza-mido)phenyl)-3-morpholinopyridin-2-yl)oxy)ethoxy)ethoxy)ethoxy)methyl)-1H-1,2,3-triazol-1-yl)hexanamido)butanoyl)-4-hydroxy-N—((S)-1-(4-(4-methylthiazol-5-yl)phenyl)-ethyl)pyrrolidine-2-carboxamide] | +++++ (RAF/E3 Dimerization ≥75%) |
| Cc1ccc(NC(=O)c2cccc(C(F)(F)F)c2)cc1-c1cnc(OCCCCc2cn(CCCCCC(=O)Nc3cccc4c3C(=O)N(C3CCC(=O)NC3=O)C4=O)nn2)c(N2CCOCC2)c1 (centres unmarked) [Compound 2.013, N-(3-(6-(4-(1-(6-((2-(2,6-dioxopiperidin-3-yl)-1,3-dioxoisoindolin-4-yl)amino)-6-oxohexyl)-1H-1,2,3-triazol-4-yl)butoxy)-5-morpholinopyridin-3-yl)-4-methylphenyl)-3-(trifluoromethyl)benzamide] | ++ (25% > RAF/E3 Dimerization ≥ 5%) |

Continued, values first:

| RAF/E3 Dimerization | SMILES |
| --- | --- |
| ++++ (75% > RAF/E3 Dimerization ≥ 50%) | Cc1ncc(NC(=O)c2cccc(C(F)(F)F)c2)cc1-c1cnc(OCCOCCOCC(=O)NCCCCCc2cccc3c2CN(C2CCC(=O)NC2=O)C3=O)c(N2CCOCC2)c1 (centres unmarked) [Compound 2.017, N-(6′-(2-(2-(2-((5-(2-(2,6-dioxopiperidin-3-yl)-1-oxoisoindolin-4-yl)pentyl)amino)-2-oxoethoxy)ethoxy)ethoxy)-2-methyl-5′-morpholino-[3,3′-bipyridin]-5-yl)-3-(trifluoromethyl)benzamide] |
| ++++ (75% > RAF/E3 Dimerization ≥ 50%) | Cc1ncc(NC(=O)c2cccc(C(F)(F)F)c2)cc1-c1cnc(OCCOCCOCCOCC(=O)NCCCCCCc2cccc3c2CN(C2CCC(=O)NC2=O)C3=O)c(N2CCOCC2)c1 (centres unmarked) [Compound 2.018, N-(6′-((18-(2-(2,6-dioxopiperidin-3-yl)-1-oxoisoindolin-4-yl)-11-oxo-3,6,9-trioxa-12-azaoctadecyl)oxy)-2-methyl-5′-morpholino-[3,3′-bipyridin]-5-yl)-3-(trifluoromethyl)benzamide] |
| +++ (50% > RAF/E3 Dimerization ≥ 25) | Cc1ncc(NC(=O)c2cccc(C(F)(F)F)c2)cc1-c1cnc(OCCOCCOCC(=O)NCCOCCCc2cccc3c2CN(C2CCC(=O)NC2=O)C3=O)c(N2CCOCC2)c1 (centres unmarked) [Compound 2.019, N-(6′-((15-(2-(2,6-dioxopiperidin-3-yl)-1-oxoisoindolin-4-yl)-8-oxo-3,6,12-trioxa-9-azapentadecyl)oxy)-2-methyl-5′-morpholino-[3,3′-bipyridin]-5-yl)-3-(trifluoromethyl)benzamide] |
| +++ (50% > RAF/E3 Dimerization ≥ 25) | Cc1ncc(NC(=O)c2cccc(C(F)(F)F)c2)cc1-c1cnc(OCCOCCOCCOCC(=O)NCCOCCCc2cccc3c2CN(C2CCC(=O)NC2=O)C3=O)c(N2CCOCC2)c1 (centres unmarked) [Compound 2.020, N-(6′-((18-(2-(2,6-dioxopiperidin-3-yl)-1-oxoisoindolin-4-yl)-11-oxo-3,6,9,15-tetraoxa-12-azaoctadecyl)oxy)-2-methyl-5′-morpholino-[3,3′-bipyridin]-5-yl)-3-(trifluoromethyl)-benzamide] |
| ++ (25% > RAF/E3 Dimerization ≥ 5%) | Cc1ncc(NC(=O)c2cccc(C(F)(F)F)c2)cc1-c1cnc(OCCOCc2cn(CCCCCC(=O)Nc3cccc4c3C(=O)N(C3CCC(=O)NC3=O)C4=O)nn2)c(N2CCOCC2)c1 (centres unmarked) [Compound 2.022, N-(6′-(2-((1-(6-((2-(2,6-dioxopiperidin-3-yl)-1,3-dioxoisoindolin-4-yl)amino)-6-oxohexyl)-1H-1,2,3-triazol-4-yl)methoxy)ethoxy)-2-methyl-5′-morpholino-[3,3′-bipyridin]-5-yl)-3-(trifluoromethyl)benzamide] |
| + (5% > RAF/E3 Dimerization) | Cc1ncc(NC(=O)c2cccc(C(F)(F)F)c2)cc1-c1cnc(OCCOCCOCC(=O)NCCOCCCc2cccc3c2C(=O)N(C2CCC(=O)NC2=O)C3=O)c(N2CCOCC2)c1 (centres unmarked) [Compound 2.023, N-(6′-((15-(2-(2,6-dioxopiperidin-3-yl)-1,3-dioxoisoindolin-4-yl)-8-oxo-3,6,12-trioxa-9-azapentadecyl)oxy)-2-methyl-5′-morpholino-[3,3′-bipyridin]-5-yl)-3-(trifluoromethyl)ben-zamide] |
| ++ (25% > RAF/E3 Dimerization ≥ 5%) | O=C1CCC(N2C(=O)c3cccc(NC(=O)CCCCCn4cc(CNC(=O)c5cc(Oc6ccc(NC(=O)Nc7ccc(Cl)c(C(F)(F)F)c7)cc6)ccn5)nn4)c3C2=O)C(=O)N1 (centres unmarked) [Compound 2.024, 4-(4-(3-(4-chloro-3-(trifluoromethyl)phenyl)ureido)phenoxy)-N-((1-(6-((2-(2,6-dioxopiperidin-3-yl)-1,3-dioxoisoindolin-4-yl)amino)-6-oxohexyl)-1H-1,2,3-triazol-4-yl)methyl)picolinamide] |
| ++ (25% > RAF/E3 Dimerization ≥ 5%) | O=C1CCC(N2C(=O)c3cccc(NC(=O)CCCCCn4cc(CCNC(=O)c5cc(Oc6ccc(NC(=O)Nc7ccc(Cl)c(C(F)(F)F)c7)cc6)ccn5)nn4)c3C2=O)C(=O)N1 (centres unmarked) [Compound 2.025, 4-(4-(3-(4-chloro-3-(trifluoromethyl)phenyl)ureido)phenoxy)-N-(2-(1-(6-((2-(2,6-dioxopiperidin-3-yl)-1,3-dioxoisoindolin-4-yl)amino)-6-oxohexyl)-1H-1,2,3-triazol-4-yl)ethyl)picolinamide] |
| + (5% > RAF/E3 Dimerization) | O=C1CCC(N2C(=O)c3cccc(NC(=O)CCCCCn4cc(CCCCNC(=O)c5cc(Oc6ccc(NC(=O)Nc7ccc(Cl)c(C(F)(F)F)c7)cc6)ccn5)nn4)c3C2=O)C(=O)N1 (centres unmarked) [Compound 2.026, 4-(4-(3-(4-chloro-3-(trifluoromethyl)phenyl)ureido)phenoxy)-N-(4-(1-(6-((2-(2,6-dioxopiperidin-3-yl)-1,3-dioxoisoindolin-4-yl)amino)-6-oxohexyl)-1H-1,2,3-triazol-4-yl)butyl)picolinamide] |
